Assay results taken from ChEMBL document CHEMBL5244230, “Artemisinin-derived hybrids and their anticancer activity” (Eur J Med Chem, 2020).

What was measured:
[1] = Antiproliferative activity against human MRC5 cells assessed as reduction in cell viability; format: toxicity, cell-based
HCT-116 = experiment: Antiproliferative activity against human HCT-116 cells assessed as reduction in cell viability; format: functional, cell-based; settings: Homo sapiens, HCT-116
MDA-MB-231 [2] = experiment: Antiproliferative activity against human MDA-MB-231 cells assessed as reduction in cell viability; format: functional, cell-based
HT-29 = experiment: Antiproliferative activity against human HT-29 cells assessed as reduction in cell viability; format: functional, cell-based
A549 = experiment: Antiproliferative activity against human A549 cells; format: functional, cell-based
MDA-MB-231 [3] = experiment: Antiproliferative activity against human MDA-MB-231 cells; format: functional, cell-based; settings: Homo sapiens, MDA-MB-231
[4] = Antiproliferative activity against human U-87 MG cells; format: functional, cell-based, U-87MG ATCC
NCI-H460 = experiment: Antiproliferative activity against human NCI-H460 cells; format: functional, cell-based
K562 = experiment: Antiproliferative activity against human K562 cells; format: functional, cell-based
PC-3 = experiment: Antiproliferative activity against human PC-3 cells; format: functional, cell-based
A-431 = experiment: Antiproliferative activity against human A-431 cells; format: functional, cell-based
COLO 205 = experiment: Antiproliferative activity against human COLO 205 cells; format: functional, cell-based
HEK293 = experiment: Antiproliferative activity against human HEK293 cells; format: functional, cell-based
[5] = Antiproliferative activity against mouse P388 cells assessed as reduction in cell viability measured after 72 hrs; format: functional, cell-based; settings: time 72 hrs
HL-60 = experiment: Antiproliferative activity against human HL-60 cells assessed as reduction in cell viability measured after 72 hrs; format: functional, cell-based; settings: HL-60, time 72 hrs
P388/ADR = experiment: Antiproliferative activity against mouse P388/ADR cells assessed as reduction in cell viability measured after 72 hrs; format: functional, cell-based; settings: time 72 hrs

Row | Compound | IC50 [1] | IC50 (HCT-116) | IC50 (MDA-MB-231 [2]) | IC50 (HT-29) | IC50 (A549) | IC50 (MDA-MB-231 [3]) | further results
1 | C[C@H]1[C@H](OCCn2cc(COc3cccc4c(C(F)(F)F)cc(=O)oc34)nn2)O[C@@H]2O[C@@]3(C)CC[C@H]4[C@H](C)CC[C@@H]1[C@@]24OO3 | 0.43 µM | 0.43 µM | 0.43 µM | 0.43 µM |  |  | 
2 | Cc1ccccc1NS(=O)(=O)/C=C/c1cccc(OCCO[C@@H]2O[C@@H]3O[C@@]4(C)CC[C@H]5[C@H](C)CC[C@@H]([C@H]2C)[C@@]35OO4)c1 |  |  |  | 0.05 µM | 0.05 µM | 0.05 µM | IC50 [4]: 0.05 µM; IC50 (NCI-H460): 0.05 µM
3 | CC(=O)c1cccc(-n2cc(CO[C@H]3O[C@@H]4O[C@]5(C)OO[C@]46[C@@H](CC[C@@H](C)[C@@H]6C[C@H]5O)[C@H]3C)nn2)c1 |  |  |  |  | 25.3 µM | 25.3 µM | IC50 (K562): 25.3 µM; IC50 (PC-3): 25.3 µM; IC50 (A-431): 25.3 µM; IC50 (COLO 205): 25.3 µM; IC50 (HEK293): 25.3 µM
4 | C[C@H]1[C@H](OC(=O)CCC(=O)N2CCN(C)CC2)O[C@@H]2O[C@]3(C)CC[C@H]4[C@H](C)CC[C@@H]1[C@@]24OO3 |  |  |  |  |  |  | GI50 [5]: 0.231 µM; GI50 (HL-60): 0.231 µM; GI50 (P388/ADR): 0.231 µM
5 | Cc1cc(=O)oc2c(OCc3cn(CCO[C@@H]4O[C@@H]5O[C@@]6(C)CC[C@H]7[C@H](C)CC[C@@H]([C@H]4C)[C@@]57OO6)nn3)cccc12 | 0.43 µM | 0.43 µM | 0.43 µM | 0.43 µM |  |  | 
6 | CCOC(=O)c1cc2cccc(OCc3cn(CCO[C@@H]4O[C@@H]5O[C@@]6(C)CC[C@H]7[C@H](C)CC[C@@H]([C@H]4C)[C@@]57OO6)nn3)c2oc1=O | 0.43 µM | 0.43 µM | 0.43 µM | 0.43 µM |  |  | 
7 | C[C@@H]1CC[C@H]2[C@@H](C)C(OCCOc3cccc(/C=C/S(=O)(=O)Nc4ccc(Cl)cc4)c3)O[C@@H]3O[C@@]4(C)CC[C@@H]1[C@]32OO4 (single isomer, unassigned) |  |  |  | 0.05 µM | 0.05 µM | 0.05 µM | IC50 [4]: 0.05 µM; IC50 (NCI-H460): 0.05 µM
8 | C[C@H]1[C@H](OC(=O)CCC(=O)N2CCN(c3ccccc3)CC2)O[C@@H]2O[C@]3(C)CC[C@H]4[C@H](C)CC[C@@H]1[C@@]24OO3 |  |  |  |  |  |  | GI50 [5]: 0.231 µM; GI50 (HL-60): 0.231 µM; GI50 (P388/ADR): 0.231 µM
9 | C[C@H]1[C@H](OCCOc2cccc(/C=C/S(=O)(=O)Nc3c(Cl)cccc3Cl)c2)O[C@@H]2O[C@@]3(C)CC[C@H]4[C@H](C)CC[C@@H]1[C@@]24OO3 |  |  |  | 0.05 µM | 0.05 µM | 0.05 µM | IC50 [4]: 0.05 µM; IC50 (NCI-H460): 0.05 µM
10 | CC(=O)c1ccccc1-n1cc(CO[C@H]2O[C@@H]3O[C@]4(C)OO[C@]35[C@@H](CC[C@@H](C)[C@@H]5C[C@H]4O)[C@H]2C)nn1 |  |  |  |  | 25.3 µM | 25.3 µM | IC50 (K562): 25.3 µM; IC50 (PC-3): 25.3 µM; IC50 (A-431): 25.3 µM; IC50 (COLO 205): 25.3 µM; IC50 (HEK293): 25.3 µM
11 | C[C@H]1[C@@H](Oc2ccc(C(=O)N3CCN(C/C=C/c4ccccc4)CC3)cc2)O[C@@H]2O[C@@]3(C)CC[C@H]4[C@H](C)CC[C@@H]1[C@@]24OO3 |  |  |  |  |  |  | GI50 [5]: 0.0221 µM; GI50 (P388/ADR): 0.0221 µM
12 | C[C@H]1[C@H](OCCCn2cc(COc3cccc4c(C(F)(F)F)cc(=O)oc34)nn2)O[C@@H]2O[C@@]3(C)CC[C@H]4[C@H](C)CC[C@@H]1[C@@]24OO3 | 0.43 µM | 0.43 µM | 0.43 µM | 0.43 µM |  |  | 
13 | Cc1c(Cl)c(=O)oc2c(OCc3cn(CCCO[C@@H]4O[C@@H]5O[C@@]6(C)CC[C@H]7[C@H](C)CC[C@@H]([C@H]4C)[C@@]57OO6)nn3)cccc12 | 0.43 µM | 0.43 µM | 0.43 µM | 0.43 µM |  |  | 
14 | C[C@H]1[C@@H](OCc2cn(-c3ccc(C#N)cc3)nn2)O[C@@H]2O[C@]3(C)OO[C@]24[C@H]1CC[C@@H](C)[C@@H]4C[C@H]3O |  |  |  |  | 25.3 µM | 25.3 µM | IC50 (K562): 25.3 µM; IC50 (PC-3): 25.3 µM; IC50 (A-431): 25.3 µM; IC50 (COLO 205): 25.3 µM; IC50 (HEK293): 25.3 µM
15 | C[C@H]1[C@@H](Oc2ccc(C(=O)N3CCN(c4ccccc4)CC3)cc2)O[C@@H]2O[C@@]3(C)CC[C@H]4[C@H](C)CC[C@@H]1[C@@]24OO3 |  |  |  |  |  |  | GI50 [5]: 0.0221 µM; GI50 (P388/ADR): 0.0221 µM
16 | CCOC(=O)c1cc2cccc(OCc3cn(CCCO[C@@H]4O[C@@H]5O[C@@]6(C)CC[C@H]7[C@H](C)CC[C@@H]([C@H]4C)[C@@]57OO6)nn3)c2oc1=O | 0.43 µM | 0.43 µM | 0.43 µM | 0.43 µM |  |  | 
17 | C[C@H]1[C@H](OCCOc2cccc(/C=C/S(=O)(=O)Nc3ccccc3)c2)O[C@@H]2O[C@@]3(C)CC[C@H]4[C@H](C)CC[C@@H]1[C@@]24OO3 |  |  |  | 0.05 µM | 0.05 µM | 0.05 µM | IC50 [4]: 0.05 µM; IC50 (NCI-H460): 0.05 µM
